Test results: patent publication US9289412B2, “Role of limonoid compounds as neuroprotective agents” (The Johns Hopkins University, priority 2006, dated 2016)
Like-named read-outs stand apart in the source and are kept apart here.

Tested on: rat mixed hippocampal cultures
Test: 3-NP neurotoxicity assay, MTT viability, rat mixed hippocampal cultures
Format: cell-based
Conditions: 1 h preincubation, test concentration (10 μM); for inhibition at 10 µM: Rattus norvegicus
Description: For example, a cell viability assay can be used in a preliminary screen on a large series of compounds each of which is tested at a fixed concentration. In some embodiments, mixed hippocampal cell cultures are prepared as described in, e.g., Haughey et al. (1999), J Neurochem, 73(4):1363-1374, and Haughey et al (2004), J Neurosci, 24(1):257-268. Subsequently, the cultures are pretreated for one hour in the presence of a candidate neuroprotective agent and then incubated with a cytotoxic agent for about 18 hours. Examples of cytotoxic agents include, but are not limited to, oxidative stressors (e.g., 3-nitropropionic acid (3-NP) or H2O2), excitatory amino acids (e.g., kainate), or neurotoxic proteins (e.g., Hiv Tat, or Aβ peptides). […] The level of protection (“percent protection”) provided by the test compound at a given test concentration in vitro can be expressed as: […]
A variety of methods for determining cell viability may be used. In some embodiments, cell viability is assessed based on the “MTT” assay method described in Mosmann (1983), J Immunol Methods, 65(1-2):55-63, or a variant thereof. This assay is based on the ability of a mitochondrial dehydrogenase enzyme from viable cells to cleave the tetrazolium rings of the pale yellow MTT and form dark blue formazan crystals, which are trapped in cells and readily quantified by ELISA spectrophotometry.
We sought to evaluate the protective efficacy of a number of modified terpenoid compounds against the against many different neurotoxins, ranging from the chemotoxic 6-OHDA, NMDA, 3-nitropropionic acid (3-NP), and viral proteins such as Tat and gp120. Thus, we established an in vitro neuroprotection assay using rat mixed hippocampal cultures, in which we evaluated the protective efficacy of neuroprotective compounds disclosed herein. The oxidative stressor 3-NP was used to elicit toxicity in the rat hippocampal cultures to mimic the oxidative damage, reactive oxygen species production and ensuing neurodegeneration resulting from HIV infection. Another measure of neurotoxicity which results from HIV infection was evaluated by exposure of the hippocampal cultures to HIV-1 Tat (Li et al (2005), Neurotox Res, 8(1-2): 119-134).
Rat mixed hippocamal neuronal cultures were generated from freshly dissected rat hippocampi (embryonic day 18) in neurobasal media containing 5% fetal bovine serum and 2% B27 supplement. The cells were plated into 96 well plates at a density of 4×10^5 cells/mL and routinely used on days 11-14 following culturing. Cell viability was assessed with MTT [3-(4,5-dimethylthiazol-2-yl)-2,5-diphenyltetrazolium bromide] assay. The MTT assay is based on the ability of a mitochondrial dehydrogenase enzyme from viable cells to cleave the tetrazolium rings of the pale yellow MTT and form dark blue formazan crystals. See Mosmann (1983), J Immunol Methods, 65(1-2):55-63. These crystals are largely impermeable to cell membranes, and thus accumulate within healthy cells. The resultant formazan precipitates are solubilized with DMSO and read on a multiwell scanning spectrophotometer (ELISA reader). The number of surviving cells is directly proportional to the level of the formazan product created.
Mixed hippocampal cultures were incubated with 3-NP (0.5-10 mM) for 18 hours and then assessed for viability using an MTT assay.
Cultures were preincubated with GPI 1046 or Resveratrol for one hour prior to an 18 hour exposure to 3 mM 3-NP. […] The same neuroprotective compounds were evaluated for efficacy against HIV-1 Tat protein toxicity using the same 1 hour preincubation protocol.

[1] = Table 2, vs 3 mM 3-NP 18 h, read-out: % Protection
[2] = Table 3, 3 mM 3-NP 18 h, read-out: % Protection vs 3-NP

Row | SMILES | inhibition at 10 µM [1] [%] | % Protection (Table 2, vs 3 mM 3-NP 18 h) [%] | inhibition at 10 µM [2] [%] | also measured
1 | CC(=O)O[C@@H]1CC2C(C)(C)C(=O)C3OC3[C@]2(C)C2CC[C@@]3(C)C(=CC(=O)O[C@@H]3c3ccoc3)[C@@]21C (stereo partly drawn) [1 (2)alpha- EPOXYDEOXYDIHYDRO- GEDUNIN, 1 (2)alpha-EPOXYDEOXYDIHYDROGEDUNIN] | 14 |  |  | 
2 | CC1(C)C(=O)[C@@H]2O[C@@H]2[C@@]2(C)C1C[C@@H](O)[C@]1(C)C2CC[C@@]2(C)[C@H](c3ccoc3)OC(=O)C3OC321 (stereo partly drawn) [1,2alpha- EPOXYDEACET[…], 1,2alpha-EPOXYDEACETOXYDIHYDROGEDUNIN] |  | 25 |  | 
3 | CC1(C)C2CC(=O)[C@]3(C)C(CC[C@@]4(C)[C@H](c5ccoc5)OC(=O)C5OC543)[C@@]2(C)[C@@H](O)C[C@H]1O (stereo partly drawn) [1,3-DIDEACETYL-7-DEACETOXY-7-OXOKHIVORIN] |  | 15 | 15 | 
4 | CC(=O)O[C@@H]1CC2C(C)(C)[C@H](O)C[C@H](O)[C@]2(C)C2CC[C@]3(C)[C@@H](c4ccoc4)OC(=O)[C@H]4O[C@]43[C@@]21C (stereo partly drawn) [1,3-DIDEACETYLKHIVORIN] | 129 |  |  | 
5 | CC1(C)C2CC(=O)[C@]3(C)C(CC[C@@]4(C)[C@H](c5ccoc5)OC(=O)[C@H]5O[C@]543)[C@@]2(C)C(=O)C[C@H]1O (stereo partly drawn) [1,7-DIDEACETOXY-1,7-DIOXO-3-DEACETYLKHIVORIN] |  | 15 | 15 | 
6 | CC(=O)OC1CC2C(C)(C)CCC(=O)[C@]2(C)C2CC[C@@]3(C)[C@H](c4ccoc4)OC(=O)C4OC43[C@]12C (stereo partly drawn) [2,3-DIHYDROISOGEDUNIN] |  | 44 |  | 
7 | CC(=O)O[C@H]1C[C@@H](O)C(C)(C)[C@@H]2C[C@@H](OC(C)=O)[C@]3(C)[C@H](CC[C@@]4(C)[C@@H](c5ccoc5)OC(=O)[C@H]5O[C@@]534)[C@@]12C [3-DEACETYLKHIVORIN] |  |  |  | % Protection vs 3-NP (Table 3, 3 mM 3-NP 18 h): 7%
8 | CC(=O)O[C@H]1CC[C@@]2(C)C(C[C@@H](OC(C)=O)[C@@]3(C)C4=CC(=O)O[C@@H](c5ccoc5)[C@]4(C)CCC23)C1(C)C (stereo partly drawn) [3-DEOXO-3beta-ACETOXYDEOXYDIHYDROGEDUNIN] | 56 |  |  | 
9 | CC(=O)O[C@@H]1CC2C(C)(C)[C@H](O)C=C[C@]2(C)C2CC[C@]3(C)C(=CC(=O)O[C@H]3c3ccoc3)[C@@]21C (stereo partly drawn) [3-alpha- HYDROXYDEOXYGEDININ, 3-alpha-HYDROXYDEOXYGEDININ] |  | 28 |  | 
10 | CC(=O)O[C@@H]1CC[C@@]2(C)C(C[C@@H](OC(C)=O)[C@@]3(C)C4=CC(=O)O[C@@H](c5ccoc5)[C@]4(C)CCC23)C1(C)C (stereo partly drawn) [3alpha- ACETOXYDIHYDRODEOXY- GEDUNIN, 3alpha-ACETOXYDIHYDRODEOXYGEDUNIN] | 151 |  |  | 
11 | C=C1C2CC[C@]3(C)[C@@H](c4ccoc4)OC(=O)CC13O[C@H]1CC(O)C(C)(C)C(CC(=O)OC)[C@@]21C (stereo partly drawn) [3alpha-HYDROXY-3-DEOXYANGOLENSIC ACID METHYL ESTER] | 35 |  |  | 
12 | CC(=O)O[C@H]1CC[C@@]2(C)C(C[C@H](OC(C)=O)[C@@]3(C)C4=CC(=O)OC(c5ccoc5)[C@]4(C)CCC23)C1(C)C (stereo partly drawn) [3beta,7beta-DIACETOXYDEOXODEACETOXYDEOXYDIHYDROGEDUNIN] | 61 |  |  | 
13 | CC(=O)O[C@H]1CC[C@]2(C)[C@H]3CC[C@@]4(C)[C@H](c5ccoc5)OC(=O)[C@H]5O[C@]54[C@]3(C)[C@H](OC(C)=O)C[C@H]2C1(C)C [3beta- ACETOXYDEOXODIHYDRO- GEDUNIN, 3beta-ACETOXYDEOXODIHYDROGEDUNIN] | 39 |  | 39 | 
14 | CC(=O)OC1CC2C(C)(C)[C@@H](O)CC[C@]2(C)C2CC[C@]3(C)[C@H](c4ccoc4)OC(=O)[C@H]4O[C@]43[C@]12C (stereo partly drawn) [3beta- HYDROXYDEOXODIHYDRO- GEDUNIN, 3beta-HYDROXYDEOXODIHYDROGEDUNIN] | 82 |  |  | 
15 | C=C1C2CC[C@@]3(C)[C@H](c4ccoc4)OC(=O)C[C@]13O[C@H]1C[C@@H](OC(C)=O)C(C)(C)[C@H](CC(=O)OC)[C@@]21C [3beta-ACETOXYDEOXYANGOLENSIC ACID, METHYL ESTER] | 128 |  |  | 
16 | CC1(C)C2CC(=O)[C@]3(C)C(CC[C@@]4(C)[C@H](c5ccoc5)OC(=O)[C@H]5O[C@]543)[C@@]2(C)C=C[C@@H]1O (stereo partly drawn) [3beta-HYDROXYDEOXYDESACETOXY-7-OXOGEDUNIN] | 30 |  |  | 

Row | SMILES | inhibition at 10 µM [1] [%] | % Protection (Table 2, vs 3 mM 3-NP 18 h) [%] | inhibition at 10 µM [2] [%] | also measured
17 | C=C1C2CC[C@@]3(C)[C@H](c4ccoc4)OC(=O)C[C@]13O[C@H]1CC(=O)C(C)(C)[C@H](C(O)C(=O)OC)[C@@]21C (stereo partly drawn) [6-HYDROXYANGOLENSIC ACID METHYL ESTER] | 26 |  | 26 | 
18 | CC1(C)C(=O)C=C[C@@]2(C)C1CC(=O)[C@@]1(C)C3=CC(=O)O[C@@H](c4ccoc4)[C@]3(C)CCC12 (stereo partly drawn) [7-DEACETOXY-7- OXODEOXYGEDUNIN, 7-DEACETOXY-7-OXODEOXYGEDUNIN] | 24 |  |  | 
19 | CC(=O)O[C@H]1C[C@@H](OC(C)=O)C(C)(C)C2CC(=O)[C@]3(C)C(CC[C@@]4(C)[C@H](c5ccoc5)OC(=O)[C@H]5O[C@]543)[C@]21C (stereo partly drawn) [7-DEACETOXY-7- OXOKHIVORIN, 7-DEACETOXY-7-OXOKHIVORIN] | 36 |  | 36 | 
20 | COC(=O)[C@@H]1OC(=O)C2OC23[C@@]1(C)CCC1[C@]2(C)C(CC(=O)[C@]13C)C(C)(C)[C@H](OC(C)=O)C[C@@H]2OC(C)=O (stereo partly drawn) [7-DEACETOXY-7-OXOKHIVORINIC ACID, METHYL ESTER] |  | 42 |  | 
21 | CC(=O)O[C@H]1C[C@@H](OC(C)=O)C(C)(C)C2C[C@@H](O)[C@]3(C)C(CC[C@@]4(C)[C@H](c5ccoc5)OC(=O)[C@H]5O[C@]543)[C@]21C (stereo partly drawn) [7-DEACETYLKHIVORIN] |  | 32 | 32 | 
22 | CC(=O)O[C@H]1C[C@@H](OC(C)=O)C(C)(C)C2C[C@H](OC(C)=O)[C@]3(C)C(CC[C@@]4(C)[C@H](c5ccoc5)OC(=O)[C@H]5O[C@]543)[C@]21C (stereo partly drawn) [7-EPIKHIVORIN] | 65 |  |  | 
23 | COC(=O)[C@@H]1OC(=O)C2OC23[C@@]1(C)CCC1[C@]2(C)C(C[C@H](O)[C@]13C)C(C)(C)[C@H](OC(C)=O)C[C@@H]2OC(C)=O (stereo partly drawn) [7beta-HYDROXY-7-DESACETOXYKHIVORINIC ACID, METHYL ESTER] |  | 84 |  | 
24 | COC(=O)C[C@H]1C(C)(C)C2(O)OC34CC2C(=O)[C@]1(C)C3CC[C@]1(C)C4=CC(=O)O[C@H]1c1ccoc1 (stereo partly drawn) [8beta-HYDROXYCARAPIN, 3,8-HEMIACETAL] |  |  |  | % Protection vs 3-NP (Table 3, 3 mM 3-NP 18 h): 9%
25 | COC(=O)C[C@H]1C2(C)CC34OC5(C)O[C@@]6([C@H](OC(C)=O)C(OC(C)=O)[C@]7(C)C(/C(=C(/O)C(C)C)C(=O)O[C@H]7c7ccoc7)[C@@]6(O5)[C@H](OC(C)=O)[C@@]3(O)C2OC(=O)C(C)C)[C@]14C (stereo partly drawn) [BUSSEIN] |  |  | 18 | 
26 | COC(=O)C[C@H]1C(C)(C)C(=O)[C@@H]2CC3=C(CC[C@]4(C)C3=CC(=O)O[C@H]4c3ccoc3)[C@@]1(C)C2=O [CARAPIN-8(9)-ENE] |  |  |  | % Protection vs 3-NP (Table 3, 3 mM 3-NP 18 h): 38%
27 | COC(=O)C[C@H]1C(C)(C)C(=O)[C@@H]2CC3C4=CC(=O)O[C@@H](c5ccoc5)[C@]4(C)CC[C@@H]3[C@@]1(C)C2=O (stereo partly drawn) [CARAPIN] |  |  | 18 | 
28 | CC1(C)C(=O)C=C[C@@]2(C)C1CC(=O)[C@]1(C)C2CC[C@@]2(C)[C@H](c3ccoc3)OC(=O)[C@H]3O[C@]321 (stereo partly drawn) [DEACETOXY-7-OXOGEDUNIN] | 38 |  | 38 | 
29 | CC1(C)C(=O)C=C[C@@]2(C)C1C[C@@H](O)[C@]1(C)C2CC[C@@]2(C)[C@H](c3ccoc3)OC(=O)[C@H]3O[C@]321 (stereo partly drawn) [DEACETYLGEDUNIN] |  | 19 | 19 | 
30 | CC(=O)OC1CC2C(C)(C)CCC[C@]2(C)C2CC[C@]3(C)C(=CC(=O)O[C@H]3c3ccoc3)[C@]12C (stereo partly drawn) [DEOXODEOXYDIHYDRO- GEDUNIN, DEOXODEOXYDIHYDROGEDUNIN] |  | 77 |  | 
31 | CC(=O)O[C@@H]1CC2C(C)(C)CCC[C@]2(C)C2CC[C@@]3(C)[C@H](c4ccoc4)OC(=O)C4OC43[C@@]21C (stereo partly drawn) [DEOXODIHYDROGEDUNIN] | 101 |  |  | 
